How the values were obtained:
Assay type in all cases: functional, cell-based; call rule not given here
HepG2 = experiment: Cytotoxicity against human HepG2 cells after 72 hrs by MTT assay
A549 = experiment: Cytotoxicity against human A549 cells after 72 hrs by MTT assay; conditions: A549, 72 h
[1] = Cytotoxicity against human LAC cells after 72 hrs by MTT assay
HeLa = experiment: Cytotoxicity against human HeLa cells after 72 hrs by MTT assay
[2] = Homo sapiens, HepG2, 72 h, read-out: EC50
[3] = Homo sapiens, LAC, 72 h, read-out: EC50

SMILES: CCS[C@@H]1[C@H](SCC)[C@@H](CO)O[C@H]1n1cc(Cn2cc(C)c(=O)[nH]c2=O)nn1
- EC50 (HepG2; [2]): > 100 µM
- EC50 (A549): > 100 µM
- EC50 [1, 3]: > 100 µM
- EC50 (HeLa): > 100 µM

SMILES: CCS[C@@H]1[C@H](SCC)[C@@H](CO)O[C@H]1n1cc(CO)nn1
- EC50 (HepG2; [2]): > 100 µM
- EC50 (A549): > 100 µM
- EC50 [1, 3]: > 100 µM
- EC50 (HeLa): > 100 µM

SMILES: CCS[C@@H]1[C@H](SCC)[C@@H](CO)O[C@H]1n1cc(Cn2ccc(N)nc2=O)nn1
- EC50 (HepG2; [2]): > 100 µM
- EC50 (A549): > 100 µM
- EC50 [1, 3]: > 100 µM
- EC50 (HeLa): > 100 µM

SMILES: CCS[C@@H]1[C@H](SCC)[C@@H](CO)O[C@H]1n1cc(-c2ccccc2)nn1
- EC50 (HepG2; [2]): 9.6 µM
- EC50 (A549): 44.1 µM
- EC50 [1, 3]: 20.7 µM
- EC50 (HeLa): 11.2 µM

SMILES: CCS[C@@H]1[C@H](SCC)[C@@H](CO)O[C@H]1n1cc(C)c(=O)[nH]c1=O
- EC50 (HepG2; hepg2): Not Active
- EC50 (A549): 86.4 µM
- EC50 ([1]; lac): Not Active
- EC50 (HeLa): 29.5 µM

SMILES: CCS[C@@H]1[C@H](SCC)[C@@H](CO)O[C@H]1n1cc(C(=O)NC)nn1
- EC50 (HepG2; [2]): > 100 µM
- EC50 (A549): > 100 µM
- EC50 [1, 3]: > 100 µM
- EC50 (HeLa): > 100 µM

SMILES: CCS[C@@H]1[C@H](SCC)[C@@H](CO)O[C@H]1n1cc(-c2ccc(F)cc2)nn1
- EC50 (HepG2; [2]): 9.62 µM
- EC50 (A549): 20.2 µM
- EC50 [1, 3]: 16.2 µM
- EC50 (HeLa): 6.92 µM

SMILES: CCS[C@@H]1[C@H](SCC)[C@@H](CO)O[C@H]1n1cc(-c2ccc(OC)cc2)nn1
- EC50 (HepG2; [2]): 11 µM
- EC50 (A549): 23.4 µM
- EC50 [1, 3]: 14.5 µM
- EC50 (HeLa): 5.69 µM

SMILES: CCS[C@@H]1[C@H](SCC)[C@@H](CO)O[C@H]1n1ccc(=O)[nH]c1=O
- EC50 (HepG2; [2]): 74.7 µM
- EC50 (A549): 87.4 µM
- EC50 ([1]; lac): Not Active
- EC50 (HeLa): 75.7 µM

SMILES: CCS[C@@H]1[C@H](SCC)[C@@H](CO)O[C@H]1n1ccc(N)nc1=O
- EC50 (HepG2; [2]): 116 µM
- EC50 (A549): 86.4 µM
- EC50 ([1]; lac): Not Active
- EC50 (HeLa): 177 µM

SMILES: O=c1[nH]c(=O)n([C@H]2C[C@H](O)[C@@H](CO)O2)cc1F [FLOXURIDINE]
- EC50 (HepG2; [2]): 18.8 µM
- EC50 (A549): 9.74 µM
- EC50 [1, 3]: 32.1 µM
- EC50 (HeLa): 10.3 µM
